Source: patent US6300359A, “(E)-3-[1-n-Butyl-5-[2-(2-carboxyphenyl)methoxy-4-chlorophenyl]-1H-pyrazol-4 -yl]-2-[(5-methoxy-2,3-dihydrobenzofuran-6-yl)methyl]-prop-2-enoic acid monoargininyl salt” (SmithKline Beecham Corporation, priority 2000, dated 2001)
“Also recorded” adds a separate entry of the source. Counter-ions that a name gives are not always drawn. Like-named read-outs stand apart in the source and are kept apart here. Values belong to the molecule of their own block, whether it stands above or below them.

Columns and labels:
[1] = Hygroscopicity study (moisture uptake, dynamic vapor sorption analyzer); format: physicochemical; conditions: for % Moisture Uptake: percentage weight gain
Excerpt: ^a Measured on a dynamic vapor sorption analyzer as percentage weight

[2] = Enterohepatic extraction ratio and theoretical maximum oral bioavailability; format: in vivo; conditions: dogs
[3] = Bioavailability study in dogs (oral capsule formulations; intraduodenal non-aqueous solution); format: in vivo, male beagle dogs; conditions: for bioavailability: plasma
[4] = Aqueous solubility under acidic conditions; format: physicochemical; conditions: water, pH<5.34
Method: The aqueous solubility of the diacid of the compound of Formula (I) is very limited under acidic conditions. The solubility is less than 0.1 ug/mL at pH<5.34.

[5] = Accelerated stability studies; format: physicochemical; conditions: stored at 50° C.

% Moisture Uptake ([1]; 0% relative humidity): 0%
% Moisture Uptake ([1]; 10% relative humidity): 0.077%
% Moisture Uptake ([1]; 20% relative humidity): 0.088%
% Moisture Uptake ([1]; 30% relative humidity): 0.126%
% Moisture Uptake ([1]; 40% relative humidity): 0.184%
% Moisture Uptake ([1]; 50% relative humidity): 0.245%
% Moisture Uptake ([1]; 60% relative humidity): 0.316%
% Moisture Uptake ([1]; 70% relative humidity): 0.395%
% Moisture Uptake ([1]; 80% relative humidity): 0.509%
% Moisture Uptake ([1]; 90% relative humidity): 0.518%
hepatic extraction ratio ([2]; dog, in vivo): 0.82
theoretical maximum value of oral bioavailability ([2]; from enterohepatic extraction ratio): 18%
bioavailability ([3]; dog, po, 10 mg/kg, dogs, oral dosing of a simple capsule formulation, read-out: oral bioavailability): 3.9%
bioavailability ([3]; dog, po, dog, oral capsule with 0.5% Tween 80 & 2 MEq NMG (also some microcrystalline cellulose, lactose, starch), read-out: Mean % Oral Bioavailability ± SD): 6.3 ± 5.3%
bioavailability ([3]; dog, po, dog, oral capsule with 0.5% Tween 80 (also some microcrystalline cellulose, lactose, starch), read-out: Mean % Oral Bioavailability ± SD): 2.3 ± 3.7%
solubility [4]: < 0.1 µg/mL
Compound: CCCCn1ncc(/C=C(\Cc2cc3c(cc2OC)CCO3)C(=O)O)c1-c1ccc(Cl)cc1OCc1ccccc1C(=O)O [Diacid, (E)-3-[1-n-Butyl-5-[2-(2-carboxyphenyl)methoxy-4-chlorophenyl]-1H-pyrazol-4-yl]-2-[(5-methoxy-2,3-dihydrobenzofuran-6-yl)methyl]-prop-2-enoic acid]

% Moisture Uptake ([1]; 0% relative humidity): 0%
% Moisture Uptake ([1]; 10% relative humidity, listed as Monoarginine): 0.261%
% Moisture Uptake ([1]; 20% relative humidity, listed as Monoarginine): 0.382%
% Moisture Uptake ([1]; 30% relative humidity, listed as Monoarginine): 0.526%
% Moisture Uptake ([1]; 40% relative humidity, listed as Monoarginine): 0.689%
% Moisture Uptake ([1]; 50% relative humidity, listed as Monoarginine): 0.827%
% Moisture Uptake ([1]; 60% relative humidity, listed as Monoarginine): 0.982%
% Moisture Uptake ([1]; 70% relative humidity, listed as Monoarginine): 1.092%
% Moisture Uptake ([1]; 80% relative humidity, listed as Monoarginine): 1.434%
% Moisture Uptake ([1]; 90% relative humidity, listed as Monoarginine): 2.334%
moisture absorbed ([1]; relative humidity range of 0 to 90%): 2.3%
Mean % Oral Bioavailability ± SD ([3]; dog, oral capsule (with microcrystalline cellulose as diluent), 10 mg/kg): 13.8 ± 7.6%
Compound: CCCCn1ncc(/C=C(\Cc2cc3c(cc2OC)CCO3)C(=O)O)c1-c1ccc(Cl)cc1OCc1ccccc1C(=O)O [Monoargininyl Salt, (E)-3-[1-n-Butyl-5-[2-(2-carboxyphenyl)methoxy-4-chlorophenyl]1H-pyrazol-4-yl]-2-[(5-methoxy-2,3-dihydrobenzofuran-6-yl)methyl]-prop-2-enoic Acid, Monoargininyl Salt]
hygroscopicity (in words) ([1]; compared with diacid and amorphous disodium salt, listed as monoarginine salt): minimally hygroscopic; also recorded: slightly more hygroscopic than the diacid form; also recorded: considerably less hygroscopic than the amorphous disodium salt form
chemical stability [5]: chemically stable for at least three weeks
bioavailability compared with other forms (in words) ([3]; dogs, vs disodium salt or dissolution-enhancing formulations of the diacid): increased bioavailability as compared to the disodium salt or dissolution-enhancing formulations of the diacid

% Moisture Uptake ([1]; 0% relative humidity): 0%
% Moisture Uptake ([1]; 10% relative humidity): 1.849%
% Moisture Uptake ([1]; 20% relative humidity): 2.838%
% Moisture Uptake ([1]; 30% relative humidity): 3.821%
% Moisture Uptake ([1]; 40% relative humidity): 5.013%
% Moisture Uptake ([1]; 50% relative humidity): 6.773%
% Moisture Uptake ([1]; 60% relative humidity): 10.188%
% Moisture Uptake ([1]; 70% relative humidity): 15.919%
% Moisture Uptake ([1]; 80% relative humidity): 22.472%
% Moisture Uptake ([1]; 90% relative humidity): 33.671%
bioavailability ([3]; dog, dog, non-aqueous solution (99% PEG 400, 1% DMSO) dosed intraduodenally, only 2 animals, read-out: Mean % Oral Bioavailability ± SD): 14.5%
bioavailability ([3]; dog, po, dog, oral capsule (with microcrystalline cellulose as diluent), read-out: Mean % Oral Bioavailability ± SD): 6.2%
Compound: CCCCn1ncc(/C=C(\Cc2cc3c(cc2OC)CCO3)C(=O)O)c1-c1ccc(Cl)cc1OCc1ccccc1C(=O)O [Disodium Salt]
